The nature of data set [1]: CellTiter-Glo cell viability assay in ACE2-A549 cells. Particulars: human. A general note: In ATP-based viability assays light output follows the ATP content of the culture.
Data set [2] can be described thus: Cell viability (CC50) in Vero E6-TMPRSS2-T2A-ACE2 cells. Format: cell-based. Particulars: African green monkey, Vero E6 T/A cells, Figure 3.
In data set [3] the test system is SARS-CoV-2 WA/01. Put plainly: SARS-CoV-2 WA/01 immunostaining assay in ACE2-A549 cells. Format: cell-based. Conditions: MOI 0.1, anti-spike staining, 3 DPI (Figure 2A).
In data set [4] the test system is icSARS-CoV-2-mNG. Put plainly: microbe, parasite or virus in culture. Format: cell-based, SARS-CoV-2.
For data set [5], the system named is ACE2-A549 cells. Put plainly: CellTiter-Glo cell viability assay in ACE2-A549 cells.
The subject of the next data set is SARS-CoV-2 ORF10. On the set-up: method as in PMID 34893762. Particulars: expressed in X. laevis oocytes; cited from earlier work.
The next data set concerns SARS-CoV-2 protein E. On the set-up: method as in PMID 34893762. Particulars: expressed in X. laevis oocytes; cited from earlier work.
Data set [6] deals with icSARS-CoV-2-mNG. Put plainly: microbe, parasite or virus in culture. Particulars: Severe acute respiratory syndrome coronavirus 2, read-out: IC50 (virus titer by plaque assay). It counts as cell-based, SARS-CoV-2.
The conditions of data set [7]: cited from earlier work.
Data set [8] deals with SARS-CoV-2 WA/01. Put plainly: Golden Syrian hamster infection model, lung virus titer by plaque assay. It counts as in vivo, golden Syrian hamsters. Conditions: 60 mg/kg i.p. every 12 h from 24 h before infection, 4 DPI. The protocol:
The golden Syrian hamster experiment was performed by Dr. Anthony Griffith’s team at the Boston University School of Medicine. Adult hamsters (3 males and 3 females per group) were administered with antiviral compounds i.p. starting 24 h prior to infection until completion of the study. Hamsters were infected with SARS-CoV-2 WA/01 i.n. (4 × 10^4 PFU in 100 μL). At 4 DPI, hamsters underwent euthanasia and their lungs were collected to perform plaque assays to measure virus titer in the tissues. Lung tissue from each hamster was stored at −80 °C prior to titer. Tissues were removed from −80 °C and thawed at 4 °C before being weighed and cut to a weight ≤100 mg. Each tissue sample was then homogenized using a TissueLyser II (Qiagen, Germantown, MD, USA) in a final volume of 1 mL using DMEM/2% FBS/antibiotic-antimycotic (Gibco™). Each tissue homogenate was then diluted and 200 μL of each dilution or control was added to confluent monolayers of Vero E6 cells in duplicate and incubated for 1 h at 37 °C and 5% CO2. The plates were gently rocked every 5–10 min to prevent monolayer drying. […]

For data set [9] the following is noted: cited from earlier work. The source holds these as a separate data set.
Data set [10] deals with SARS-CoV-2 WA/01. Briefly: SARS-CoV-2 WA/01 antiviral assay in Vero E6 cells. It counts as cell-based. Conditions: Severe acute respiratory syndrome coronavirus 2, Vero C1008, strain WA/01.
Data set [11] concerns SARS-CoV-2. Particulars: obtained by Zhou et al.; cited from earlier work.
The nature of the next data set: in vitro. Conditions: human.
Data set [12] relates to SARS-CoV-2. Put plainly: Summary of in vitro assays in human lung epithelial cells expressing ACE2. Particulars: Severe acute respiratory syndrome coronavirus 2, Epithelial cell, read-out: IC50 values (summary range). Format: cell-based.
Data set [13] is described as follows: Body weight and deaths of treated, infected BALB/c mice. Particulars: 60 mg/kg i.n. every 12 h, n = 6 mice per group.
Data set [14] deals with Influenza A/Hong Kong/8/68 (H3N2). Briefly: microbe, parasite or virus in culture. It counts as cell-based.
Data set [15] concerns ACE2-A549 cells. Particulars: human.
[16] abbreviates: Severe acute respiratory syndrome coronavirus 2, ACE2-A549 cells.
[17] abbreviates: Severe acute respiratory syndrome coronavirus 2.

Entries after “also recorded” stand apart in the source; their conditions may differ. Like-named read-outs stand apart in the source and are kept apart here. Some results are limits rather than exact numbers.

A word on the IC50: it is the point on the concentration scale where inhibition reaches its midpoint. Take `CCC(CC)COC(=O)[C@H](C)N[P@](=O)(OC[C@H]1O[C@@](C#N)(c2ccc3c(N)ncnn23)[C@H](O)[C@@H]1O)Oc1ccccc1` [remdesivir]: the CC50 in data set [1] is at least 3 µM. Besides, in [2], the CC50 at 48 h is at least 10 µM. Further, the IC50 in the data set with SARS-CoV-2 WA/01 [3] (setting [16]) was found to be 0.04 µM; in the data set on icSARS-CoV-2-mNG [4] (setting [17]), 0.08 µM.

As to `O=c1nc(NO)ccn1[C@@H]1O[C@H](CO)[C@@H](O)[C@H]1O` [EIDD-1931], the figures for the CC50 in the data set on ACE2-A549 cells [5] (Figure 1A) and with ACE2-A549 cells [5] (Figure 2A) were 130 µM and 100 µM, respectively. The IC50 worked out at 0.36 µM in the data set with SARS-CoV-2 WA/01 [3] (ACE2-A549 cells, read-out: IC50) and 1.5 µM in the data set on icSARS-CoV-2-mNG [4] (read-out: IC50).

Take `NC(N)=NC(=O)c1nc(Cl)c(N2CCCCCC2)nc1N` [hexamethylene-amiloride]: the “channel activity of ORF10” value in the data set with SARS-CoV-2 ORF10 is “decreased channel activities”. In addition, the “channel activity of protein E” value in the data set on SARS-CoV-2 protein E is given as “decreased channel activities”.

The term Cmax denotes the maximum level reached in the sampled fluid or tissue. As for `CC(N)C12CC3CC(CC(C3)C1)C2` (centres unmarked) [rimantadine], the IC50 was 12.6 µM in the data set with icSARS-CoV-2-mNG [6]; 34 µM in the data set with SARS-CoV-2 WA/01 [3] (setting [16]); 121 µM in the data set on SARS-CoV-2 WA/01 [10]; 36 µM with SARS-CoV-2 [11]; 30 to 40 µM in the data set with SARS-CoV-2 [12]; 29.8 µM with icSARS-CoV-2-mNG [4]. Further, the IC50 amounted to 30 µM in the data set with icSARS-CoV-2-mNG [4] (setting [17]) and 0.05 µM in [14]. Moreover, the Cmax is 0.54 to 2.17 µM in data set [7] (in vivo, 100 mg) and 9.3 µM in data set [9] (mouse, in vivo, po, 40 mg/kg). The same compound had a CC50 at 48 h in [2] of at least 300 µM. Also, the “lung virus titer vs no-drug control” value in the data set with SARS-CoV-2 WA/01 [8] is “modestly but significantly inhibited; also recorded: mild but significant antiviral effect”. For the same compound, the CC50 in “in vitro” is at least 300 µM. For the same compound, the “channel activity of protein E” value with SARS-CoV-2 protein E was “not reported to be inhibited”. Also, the “mice found dead within 1 DPI” value in data set [13] is “Two”.

With `NC12CC3CC(CC(C3)C1)C2` [amantadine], the IC50 was 34.6 µM in the data set with icSARS-CoV-2-mNG [6]; 136 µM in the data set with SARS-CoV-2 WA/01 [3] (setting [16]); 413 µM in the data set on SARS-CoV-2 WA/01 [10]; 116 µM in the data set on SARS-CoV-2 [11]; 120 to 130 µM in the data set on SARS-CoV-2 [12]; 120 µM in the data set with icSARS-CoV-2-mNG [4]. For the same compound, the IC50 in the data set with icSARS-CoV-2-mNG [4] (setting [17]) was 120 µM; in [14] it was 0.46 µM. Further, the “ratio of nasal mucus to plasma concentration, compared with rimantadine” value in data set [7] (after single 200-mg doses) is listed as “about two-fold higher”. Also, in [7] (autopsy lung tissue from an infant), the “concentration in autopsy lung tissue relative to serum concentration” value is reported as 14 times. The Cmax in data set [7] (multiple dose, 258 mg extended-release tablet once daily) is 4.16 µM; in data set [9] (read-out: Cmax plasma level, mice, single-dose i.p. injection of 60 mg/kg), 47 µM. The compound also displayed a CC50 at 48 h in data set [2] of at least 1000 µM. In addition, the “lung virus titer vs no-drug control” value in the data set with SARS-CoV-2 WA/01 [8] is reported as “did not significantly inhibit”. In addition, the “channel activity of ORF10” value with SARS-CoV-2 ORF10 is “decreased channel activities”. Further, the CC50 in “in vitro” is at least 1000 µM. Also, the “channel activity of protein E” value in the data set with SARS-CoV-2 protein E was “decreased channel activities”.

`CN(C)CCOCC(=O)NC12CC3CC(CC(C3)C1)C2` [tromantadine]: the IC50 with icSARS-CoV-2-mNG [6] is 88.9 µM; with SARS-CoV-2 WA/01 [3] (setting [16]), 56 µM; in the data set with SARS-CoV-2 [12], 60 to 100 µM; in the data set on icSARS-CoV-2-mNG [4] it was 97.6 µM; in the data set on icSARS-CoV-2-mNG [4] (setting [17]) it was 98 µM; in data set [14] it was 94.2 µM. Further, the results for the CC50 with ACE2-A549 cells [15] and in “in vitro” were 305 µM and 312 µM, respectively.

The record behind these values is PMC10238102, “Anti-SARS-CoV-2 Activity of Adamantanes In Vitro and in Animal Models of Infection” (COVID, 2022).
